Laboratory results reported in patent US11084822B2, “Salts and processes of preparing a PI3K inhibitor” (Incyte Corporation, priority 2015, dated 2021).
pIC50: −log10 of the molar value.

Columns and labels:
Type in all cases: biochemical
PI3Kδ = PI3Kδ (Homo sapiens (Human), UniProt O00329); assay: Example A2: PI3K Enzyme Assay ([γ-33P]ATP filter plate); conditions: assay of Example A2
Description: PI3K isoforms α, β, δ and γ are purchased from Millipore (Bedford, Mass.).
The kinase reactions are conducted in clear-bottom 96-well plate from Thermo Fisher Scientific in a final volume of 24 μL. Inhibitors are first diluted serially in DMSO and added to the plate wells before the addition of other reaction components. The final concentration of DMSO in the assay is 0.5%. […] The reaction mixture is prepared containing 50 μM PIP2, kinase and varying concentration of inhibitors. […] Reactions are incubated for 180 minutes and terminated by the addition of 100 μL of 1 M potassium phosphate pH 8.0, 30 mM EDTA quench buffer. A 100 μL aliquot of the reaction solution are then transferred to 96-well Millipore MultiScreen IP 0.45 μm PVDF filter plate (The filter plate is prewetted with 200 μL 100% ethanol, distilled water, and 1 M potassium phosphate pH 8.0, respectively). […] After drying by aspiration and blotting, the plate is air dried in an incubator at 37° C. overnight. Packard TopCount adapter (Millipore) is then attached to the plate followed with addition of 120 μL Microscint 20 scintillation cocktail (Perkin Elmer) in each well. After the plate sealing, the radioactivity of the product is determined by scintillation counting on Topcount (Perkin-Elmer). […]

PI3K = PI3K inhibition according to at least one assay described herein
JAK1 = JAK1 (Homo sapiens (Human), UniProt P23458); assay: JAK1 IC50 by the method of Assay A at 1 mM ATP
JAK2 = JAK2 (Homo sapiens (Human), UniProt O60674); assay: JAK2 versus JAK1 (Assay A at 1 mM ATP); conditions: ratio JAK2/JAK1, Assay A at 1 mM ATP
Chain of JAK2 (O60674 whole entry, species assumed): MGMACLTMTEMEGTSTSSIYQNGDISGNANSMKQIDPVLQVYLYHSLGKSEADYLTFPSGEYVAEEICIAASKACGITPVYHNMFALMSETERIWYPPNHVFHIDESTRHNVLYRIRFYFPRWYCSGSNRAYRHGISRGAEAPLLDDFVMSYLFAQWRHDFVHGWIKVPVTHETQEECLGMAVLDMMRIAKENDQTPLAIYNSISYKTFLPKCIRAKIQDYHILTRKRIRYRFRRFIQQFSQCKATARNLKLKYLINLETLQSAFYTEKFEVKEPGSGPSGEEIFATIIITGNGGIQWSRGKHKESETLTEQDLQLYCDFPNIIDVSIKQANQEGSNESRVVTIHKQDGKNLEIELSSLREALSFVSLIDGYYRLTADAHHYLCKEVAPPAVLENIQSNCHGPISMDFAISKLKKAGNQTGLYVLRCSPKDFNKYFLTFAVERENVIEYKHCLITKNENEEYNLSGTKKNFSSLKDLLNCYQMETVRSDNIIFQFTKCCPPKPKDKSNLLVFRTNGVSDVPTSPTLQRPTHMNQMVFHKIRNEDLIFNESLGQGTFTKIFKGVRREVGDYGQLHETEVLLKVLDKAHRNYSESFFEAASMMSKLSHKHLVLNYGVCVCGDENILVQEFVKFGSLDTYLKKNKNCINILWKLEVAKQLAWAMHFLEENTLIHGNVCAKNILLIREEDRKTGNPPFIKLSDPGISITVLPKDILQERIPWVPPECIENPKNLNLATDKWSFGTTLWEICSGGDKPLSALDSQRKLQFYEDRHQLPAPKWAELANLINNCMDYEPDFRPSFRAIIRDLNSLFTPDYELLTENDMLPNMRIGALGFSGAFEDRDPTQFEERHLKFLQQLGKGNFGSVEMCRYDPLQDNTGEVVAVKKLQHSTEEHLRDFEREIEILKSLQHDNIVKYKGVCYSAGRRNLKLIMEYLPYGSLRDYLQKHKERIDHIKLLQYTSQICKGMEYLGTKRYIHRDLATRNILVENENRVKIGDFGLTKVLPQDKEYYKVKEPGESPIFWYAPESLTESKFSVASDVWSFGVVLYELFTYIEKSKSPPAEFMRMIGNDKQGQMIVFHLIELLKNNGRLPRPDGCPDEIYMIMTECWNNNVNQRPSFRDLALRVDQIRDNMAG

Chain of JAK1 (P23458 whole entry, species assumed): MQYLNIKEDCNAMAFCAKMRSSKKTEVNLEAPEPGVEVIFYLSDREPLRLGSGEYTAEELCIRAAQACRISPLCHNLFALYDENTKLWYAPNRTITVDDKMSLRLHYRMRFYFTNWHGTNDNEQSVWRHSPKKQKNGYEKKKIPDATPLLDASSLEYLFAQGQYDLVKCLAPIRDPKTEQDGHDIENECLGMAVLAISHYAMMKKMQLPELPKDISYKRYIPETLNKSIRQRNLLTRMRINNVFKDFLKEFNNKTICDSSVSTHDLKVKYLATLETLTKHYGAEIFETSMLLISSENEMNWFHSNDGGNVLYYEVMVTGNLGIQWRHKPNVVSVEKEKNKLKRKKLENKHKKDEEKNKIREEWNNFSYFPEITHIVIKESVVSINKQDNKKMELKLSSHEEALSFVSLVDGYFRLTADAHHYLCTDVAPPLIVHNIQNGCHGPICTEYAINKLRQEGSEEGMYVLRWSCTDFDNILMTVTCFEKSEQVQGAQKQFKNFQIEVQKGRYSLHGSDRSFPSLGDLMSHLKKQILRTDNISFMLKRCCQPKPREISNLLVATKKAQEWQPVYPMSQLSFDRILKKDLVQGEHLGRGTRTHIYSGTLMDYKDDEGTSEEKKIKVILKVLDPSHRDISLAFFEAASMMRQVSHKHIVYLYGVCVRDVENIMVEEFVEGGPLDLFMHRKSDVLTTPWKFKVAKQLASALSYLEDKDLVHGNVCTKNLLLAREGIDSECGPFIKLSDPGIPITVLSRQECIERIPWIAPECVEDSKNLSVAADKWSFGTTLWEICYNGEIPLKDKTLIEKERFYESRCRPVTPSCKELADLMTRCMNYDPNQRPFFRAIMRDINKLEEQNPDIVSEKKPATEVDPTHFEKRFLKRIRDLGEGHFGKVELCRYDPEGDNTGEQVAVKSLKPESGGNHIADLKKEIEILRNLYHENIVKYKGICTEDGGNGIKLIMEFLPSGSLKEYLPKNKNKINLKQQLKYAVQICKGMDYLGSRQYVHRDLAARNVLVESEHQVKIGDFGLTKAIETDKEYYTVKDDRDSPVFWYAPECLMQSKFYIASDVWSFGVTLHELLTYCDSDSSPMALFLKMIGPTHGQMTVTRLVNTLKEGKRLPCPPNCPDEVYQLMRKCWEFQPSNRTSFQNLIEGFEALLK
Chain of PI3Kδ (O00329 whole entry, species assumed, canonical isoform): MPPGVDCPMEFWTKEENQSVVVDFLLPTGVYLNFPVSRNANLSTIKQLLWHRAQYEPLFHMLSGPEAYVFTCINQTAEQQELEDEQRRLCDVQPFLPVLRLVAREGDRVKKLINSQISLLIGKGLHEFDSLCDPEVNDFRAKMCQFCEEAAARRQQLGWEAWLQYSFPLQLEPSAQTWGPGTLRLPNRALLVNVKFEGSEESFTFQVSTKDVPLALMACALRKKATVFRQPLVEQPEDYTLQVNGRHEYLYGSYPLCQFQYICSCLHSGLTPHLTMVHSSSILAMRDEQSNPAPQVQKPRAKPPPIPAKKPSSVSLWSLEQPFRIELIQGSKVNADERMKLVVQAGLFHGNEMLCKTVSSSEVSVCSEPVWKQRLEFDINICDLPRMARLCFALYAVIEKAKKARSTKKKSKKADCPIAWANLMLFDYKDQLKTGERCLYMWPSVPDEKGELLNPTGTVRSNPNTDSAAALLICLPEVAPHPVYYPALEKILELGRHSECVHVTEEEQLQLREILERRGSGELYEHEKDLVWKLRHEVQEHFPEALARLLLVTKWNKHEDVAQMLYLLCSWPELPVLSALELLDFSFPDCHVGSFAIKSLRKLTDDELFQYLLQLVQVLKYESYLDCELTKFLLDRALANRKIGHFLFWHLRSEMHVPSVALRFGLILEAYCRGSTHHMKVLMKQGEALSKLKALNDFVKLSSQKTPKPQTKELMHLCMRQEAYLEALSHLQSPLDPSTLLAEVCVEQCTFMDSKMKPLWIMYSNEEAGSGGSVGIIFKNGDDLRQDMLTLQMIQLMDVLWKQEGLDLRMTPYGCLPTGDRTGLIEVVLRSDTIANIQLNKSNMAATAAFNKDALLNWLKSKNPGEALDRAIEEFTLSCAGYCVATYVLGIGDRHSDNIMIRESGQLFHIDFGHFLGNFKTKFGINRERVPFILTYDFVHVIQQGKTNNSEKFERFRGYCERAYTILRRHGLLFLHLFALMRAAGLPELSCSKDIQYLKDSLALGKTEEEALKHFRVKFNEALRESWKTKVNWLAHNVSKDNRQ
Chain of PI3Kδ (P27986 whole entry partner, species assumed, canonical isoform): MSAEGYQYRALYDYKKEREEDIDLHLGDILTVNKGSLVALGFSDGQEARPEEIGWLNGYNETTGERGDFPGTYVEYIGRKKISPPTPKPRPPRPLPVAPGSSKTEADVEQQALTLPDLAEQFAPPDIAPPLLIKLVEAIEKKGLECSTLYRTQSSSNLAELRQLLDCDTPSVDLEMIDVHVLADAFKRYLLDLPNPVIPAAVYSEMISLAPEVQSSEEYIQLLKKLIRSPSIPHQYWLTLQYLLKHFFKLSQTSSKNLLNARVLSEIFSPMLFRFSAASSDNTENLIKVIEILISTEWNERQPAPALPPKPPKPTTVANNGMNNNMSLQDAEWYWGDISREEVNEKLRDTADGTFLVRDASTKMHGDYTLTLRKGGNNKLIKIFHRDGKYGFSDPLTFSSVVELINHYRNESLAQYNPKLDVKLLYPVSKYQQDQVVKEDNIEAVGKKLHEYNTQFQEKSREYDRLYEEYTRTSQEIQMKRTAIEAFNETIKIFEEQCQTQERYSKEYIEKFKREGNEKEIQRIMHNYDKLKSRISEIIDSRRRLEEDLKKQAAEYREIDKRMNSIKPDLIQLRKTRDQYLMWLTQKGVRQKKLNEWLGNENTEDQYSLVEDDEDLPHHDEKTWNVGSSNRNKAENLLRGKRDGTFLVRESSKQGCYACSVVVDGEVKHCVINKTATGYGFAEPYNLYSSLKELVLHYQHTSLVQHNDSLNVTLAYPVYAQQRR

selectivity for PI3Kδ (PI3Kδ)	SMILES	PI3K inhibition (PI3K)	pIC50 (JAK1)	JAK2/JAK1 (JAK2)
selective inhibitor for PI3Kδ	CCOc1c([C@H](C)n2nc(C)c3c(N)ncnc32)cc(Cl)c(F)c1[C@@H]1CNC(=O)C1.Cl [(R)-4-(3-((S)-1-(4-amino-3-methyl-1H-pyrazolo[3,4-d]pyrimidin-1-yl)ethyl)-5-chloro-2-ethoxy-6-fluorophenyl)pyrrolidin-2-one hydrochloride]	found to be PI3K inhibitors	–	–
–	C[C@@H](O)c1nc2cnc3ccsc3c2n1[C@H]1CC[C@H](CC#N)OC1 [Compound 1, ((2R,5S)-5-{2-[(1R)-1-hydroxyethyl]-1H-imidazo[4,5-d]thieno[3,2-b]pyridin-1-yl}tetrahydro-2H-pyran-2-yl)acetonitrile]	–	> 7.00	>10
